Assay results: article PMC9220351, “Evaluation of a Conformationally Constrained Indole Carboxamide as a Potential Efflux Pump Inhibitor in Pseudomonas aeruginosa” (Antibiotics, 2022)

Tested on: P. aeruginosa ATCC 27853 inner membrane potential
Assay: DiOC2 (3) membrane polarization assay
Format: cell-based, Pseudomonas aeruginosa
Conditions: Pseudomonas aeruginosa, ATCC27853; read-out: IC50 (DiOC2 (3) membrane polarization, Figure 4A)
Protocol: RND efflux pumps couple the influx of protons from the proton gradient across the inner membrane to the efflux of drugs and other molecules. […] The effect of TXA09155 on the proton gradient of P. aeruginosa was assessed with a fluorescence-based 3,3′-diethyloxacarbocyanine iodide [DiOC2 (3)] assay that was developed to measure membrane potential changes in Gram-negative bacteria. DiOC2 (3) is a positively charged fluorescent dye that accumulates within cells in a charge-dependent manner, shifting its fluorescence spectrum from green to red at high concentrations due to concentration-dependent dye stacking. […] Azithromycin and CCCP were used as […] controls, respectively.
P. aeruginosa membrane polarization assays were conducted as described previously using strain ATCC 27853. […] DiOC2 (3) fluorescence was recorded in a microplate reader using 450 nm excitation and 670 nm emission (for red fluorescence). Background correction for each concentration of each compound was obtained from reading the fluorescence of compounds in the resuspension buffer without cells. After background correction, fluorescence was normalized to that of the vehicle (DMSO) only. After a 30 min incubation at 37 °C, DiOC2 (3) fluorescence was recorded using a SpectraMax iD5 spectrophotometer (Molecular Devices, San Jose, CA, USA) following excitation at 450 nm. […]

## N#CC(C#N)=NNc1cccc(Cl)c1 [CCCP, Carbonyl cyanide 3-chlorophenylhydrazone]
  IC50: 15 nM
